These results are taken from PMC5914528 (Molecular microbiology, 2018).

Assay [1] has as its target T1, QscR (Pseudomonas aeruginosa, UniProt G3XD77). The following applies: DNA binding of QscR with ligand; Eqn 5.
The target in assay [2] is T1, QscR. In kind it is cell-based. The following applies: for Activation (%): 100% = activity of 3OC12-HSL.
Another assay has as its target LasR (Pseudomonas aeruginosa, UniProt P25084). In words: LasR agonism/antagonism assay, E. coli reporter strain. Particulars: Table S2 (supplement not shown). The assay is classed as cell-based.

Chain of LasR (P25084 whole entry): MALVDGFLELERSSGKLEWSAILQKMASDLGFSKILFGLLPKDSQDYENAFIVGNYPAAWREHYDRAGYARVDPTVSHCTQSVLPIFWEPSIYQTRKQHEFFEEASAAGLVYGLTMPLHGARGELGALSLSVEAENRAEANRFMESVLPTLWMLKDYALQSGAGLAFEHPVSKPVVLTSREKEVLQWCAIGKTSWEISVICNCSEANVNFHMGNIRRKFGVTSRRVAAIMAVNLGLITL

In the case of `CCCCCCCCCC(=O)CC(=O)N[C@H]1CCOC1=O` [3OC12-HSL, N-(3-oxododecanoyl) L-homoserine lactone], the Hill coefficient at QscR [1] is reported as 1.7 ± 0.4. Moreover, the “Activation (%)” value at QscR [2] is on record as 100%.

As to `O=C(CCCOc1ccc(Cl)cc1)NC1CCOC1=O` (stereo not drawn) [CL], the “activity on LasR in cell-based reporter assays” value on LasR is given as “inhibited”. This molecule gave a Hill coefficient on QscR [1] of 1.9 ± 0.3. Further, at QscR [2], the “Activation (%)” value worked out at 86%. On QscR [2] (E. coli JLD271 QscR reporter), this molecule registered an EC50 of 16 nM.

In general, Hill coefficient refers to a measure of the steepness of the concentration-response curve. Broadly, the EC50 is the midpoint of the concentration-response curve. Low readings indicate greater potency, high ones weaker potency.
